The values that follow come from patent publication US8834852B2, “Composition for oral cavity” (Kao Corporation, priority 2004, dated 2014).

In experiment [1] the test system is coaggregation of Fusobacterium nucleatum ssp. polymorphum ATCC10953 with Streptococcus sobrinus B13. The experiment is described as follows: Coaggregation inhibition test (precipitation of a clump). On the set-up: key to Coaggregation inhibition effect: the mixture in which no precipitation of a clump was observed was evaluated that test substance had a coaggregation inhibition effect (+); the mixture in which precipitation was observed was evaluated that the test substance had no coaggregation inhibition effect (−). The conditions noted are these: 200 μL of 2% (wt/vol %) test substance solution, room temperature for 30 minutes; for precipitation due to coaggregation: result in words. The class given is cell-based. As for the experimental part: (§1) Streptococcus sobrinus B13 was used as cariogenic bacteria, while Fusobacterium nucleatum ssp. polymorphum ATCC10953 was used as bacteria of the genus Fusobacterium.
After inoculation of Streptococcus sobrinus into a brain heart infusion broth, it was cultured at 37° C. for 24 hours under an anaerobic condition. Fusobacterium nucleatum ssp. polymorphum was, on the other hand, inoculated into a GAM bouillon medium and then cultured at 37° C. for 48 hours under an anaerobic condition. After completion of the cultivation, bacteria were collected by centrifugal separation and washed twice with a coaggregation buffer (1 mM tris(hydroxymethyl)aminomethane, 0.1 mM calcium chloride, 0.1 mM magnesium chloride, and 0.15 M sodium chloride). After washing, Fusobacterium nucleatum and Streptococcus sobrinus were adjusted with the coaggregation buffer to give a turbidity (OD: UV-1600, UV-Visible spectrophotometer (product of Shimadzu Corporation)), at wavelength of 600 nm, of 2.0, whereby bacteria suspensions were prepared. Test substances such as a compound represented by the formula (A) were adjusted in advance with the coaggregation buffer to give a concentration of 2% (wt/vol %). Galactose laurate was synthesized in a known manner (Patent Document 2: JP-A-2000-159675). As the other test substances, lactose, galactose, sucrose, glucose, and fructose (each, product of Wako Pure Chemicals), and β-lauryl glucoside, β-lauryl maltoside and sucrose monolaurate (each, product of Dojindo Laboratories) were employed. In the coaggregation test, 400 μL of the suspension of Fusobacterium nucleatum, 200 μL of the suspension of Streptococcus sobrinus, and 200 μL of the 2% (wt/vol %) solution of the test substance were mixed successively by using a No. 2 RIA tube (product of Asahi Techno Glass).

Experiment [2] has the same test system. The experiment is described as follows: Percent coaggregation by turbidity change (Vmax, OD 600 nm). It counts as cell-based. The conditions noted are these: final concentration 10% (wt/vol %); Vmax of coaggregation buffer control = 100%. The protocol:
as §1
The cariogenic bacteria and bacteria of the genus Fusobacterium were cultured on a brain heart infusion broth (product of Becton, Dickinson and Company) and a GAM broth (product of Nissui Pharmaceutical), respectively, under the conditions of 37° C., and 10% CO2, 10% H2, and 80% N2 during from the logarithmic phase to stationary phase. The respective bacteria were collected by centrifugal separation at 5,000 rpm for 5 minutes. After centrifugal washing (for 5 minutes at 5,000 rpm) three times with a coaggregation buffer (1 mM tris(hydroxymethyl)aminomethane, 0.1 mM calcium chloride, 0.1 mM magnesium chloride, and 0.15 M sodium chloride), they were each adjusted to have a turbidity OD at 600 nm of 2.0.
After addition of 60 μL of each of mannitol, palatinit, erythritol, xylitol, sorbitol and lactitol (product of Wako Pure Chemicals) to a 96-well microtiterplate to give the final concentration of 10% (wt/vol %), 30 μL of the bacteria of the genus Fusobacterium was dispensed and stirred, followed by the addition of 30 μL of the cariogenic bacteria. Then, by using a microplate reader (product of Molecular Devices), the turbidity (OD at 600 nm) was measured at one-minute intervals for 30 minutes and a change ratio Vmax (mOD/min) of the turbidity was calculated. Using the Vmax of a similar mixture containing the coaggregation buffer instead of the test substance as control (100%), the percent coaggregation was calculated. Based on a value thus obtained, the coaggregation reaction was measured.

Regarding `O=C(CO)[C@@H](O)[C@H](O)[C@H](O)CO` [Fructose, fructose], in experiment [1], the Coaggregation inhibition effect entry is “−” and the “precipitation due to coaggregation” value was “obvious precipitation due to coaggregation is observed”.
In the case of `O=C[C@H](O)[C@@H](O)[C@@H](O)[C@H](O)CO` [Galactose, galactose], in experiment [1], the Coaggregation inhibition effect entry is “+” and the “precipitation due to coaggregation” value was “no precipitation due to coaggregation is observed”.
For `OC[C@H]1O[C@@H](O[C@H]2[C@H](O)[C@@H](O)C(O)O[C@@H]2CO)[C@H](O)[C@@H](O)[C@H]1O` (stereo partly shown) [Lactose, lactose], in that order: “+” and “no precipitation due to coaggregation is observed”.
In the same order, the values of `OC[C@H]1O[C@@](CO)(O[C@H]2O[C@H](CO)[C@@H](O)[C@H](O)[C@H]2O)[C@@H](O)[C@@H]1O` [Sucrose, sucrose] are “−” and “obvious precipitation due to coaggregation is observed”.
With `OC[C@@H](O)[C@@H](O)CO` [erythritol], in experiment [2], the percent coaggregation came to 35%.
On to `OC[C@@H](O)[C@@H](O[C@@H]1O[C@H](CO)[C@H](O)[C@H](O)[C@H]1O)[C@H](O)[C@@H](O)CO` [lactitol], for which, in experiment [2], the percent coaggregation turned out to be 0%.
In experiment [2], `OC[C@@H](O)[C@@H](O)[C@H](O)[C@H](O)CO` [mannitol] showed a percent coaggregation of 16%.
The same measure, in the same setting: the value for `OC[C@@H](O)[C@@H](O)[C@H](O)[C@@H](O)CO` [sorbitol] was 62%.
The same measure, in the same setting: the value for `OC[C@@H](O)[C@H](O)[C@@H](O)CO` [xylitol] was 20%.
As to `CCCCCCCCO[C@H]1O[C@H](CO)[C@H](O)[C@H](O)[C@H]1O` [α-Octyl galactoside, α-octyl galactoside], in experiment [1], the Coaggregation inhibition effect entry is listed as “+” and the “precipitation due to coaggregation” value was “no precipitation due to coaggregation is observed”.
In the same order, the values of `CCCCCCCCCCCCO[C@@H]1O[C@H](CO)[C@@H](O)[C@H](O)[C@H]1O` [β-Lauryl glucoside, β-lauryl glucoside] are “−” and “obvious precipitation due to coaggregation is observed”.
In the same order, the values of `CCCCCCCCCCCCO[C@@H]1O[C@H](CO)[C@@H](O[C@H]2O[C@H](CO)[C@@H](O)[C@H](O)[C@H]2O)[C@H](O)[C@H]1O` [β-Lauryl maltoside, β-lauryl maltoside] are “−” and “obvious precipitation due to coaggregation is observed”.
For `CCCCCCCCCCCCOCCOCCOCCO[C@@H]1O[C@H](CO)[C@H](O)[C@H](O)[C@H]1O` [β-Trioxyethylene dodecylgalactoside, β-trioxyethylene lauryl galactoside], in that order: “+” and “no precipitation due to coaggregation is observed”.
Take `CCCCCCCCO[C@@H]1O[C@H](CO)[C@H](O)[C@H](O)[C@H]1O` [β-octyl galactoside]: in experiment [1], the Coaggregation inhibition effect result is recorded as “+” and the “precipitation due to coaggregation” value is “no precipitation due to coaggregation is observed”.
In the case of “Galactose laurate [Galactose monolaurate]”, in experiment [1], the Coaggregation inhibition effect result is on record as “+” and the “precipitation due to coaggregation” value is reported as “no precipitation due to coaggregation is observed”.
Regarding palatinit, the percent coaggregation in experiment [2] is 71%.
In the case of sucrose monolaurate, in experiment [1], the Coaggregation inhibition effect entry is listed as “−” and the “precipitation due to coaggregation” value is on record as “obvious precipitation due to coaggregation is observed”.
